Data on five compounds can be found in ChEMBL document CHEMBL4725403, “Improved design of peptides exhibiting angiogenic activities for clinical applications” (Bioorg Med Chem, 2020).

The source made the active and inactive calls. The calls are words filed in the database; no cut-off is given here. Where a SMILES comes first, the peptide text is derived from it. Bridges are numbered along the chain shown (N, C = ends). [ ]: non-standard residue; d: D form. AEEA = NCCOCCOCC(=O)O

Data set [1] can be described thus: Stability of compound in HUVEC cell lysates assessed as parent compound remaining after 6 hrs by HPLC-MS. As to conditions: human; for Stabilty: huvec, 6 h. The class given is ADME, subcellular.
Data set [2] in a line: Stability of compound in human serum assessed as parent compound remaining after 6 hrs by HPLC-MS. In kind it is ADME, cell-free. The conditions noted are these: for Stabilty: 6 h.
For data set [3], the system named is HUVEC. Nature of the data set: Induction of angiogenesis in HUVEC assessed as tube formation at 2 ug/ml after 2 hrs by inverted microscopy. The class given is functional. As to conditions: Homo sapiens, dose 2.0 µg/ml.
For data set [4], the system named is HUVEC. Put plainly: Induction of angiogenesis in HUVEC assessed as tube formation at 2 ug/ml after 18 hrs by inverted microscopy. The class given is functional. The conditions noted are these: Homo sapiens, dose 2.0 µg/ml.
Data set [5] concerns HUVEC. Put plainly: Induction of angiogenesis in HUVEC assessed as tube formation at 2 ug/ml upto 24 hrs by inverted microscopy. The class given is functional. As to conditions: Homo sapiens, dose 2.0 µg/ml.

For the compound `CC(C)C[C@@H]1NC(=O)CNC(=O)[C@H](Cc2ccccc2)NC(=O)[C@H](C(C)C)NC(=O)[C@H](C(C)C)NC(=O)[C@H](CO)NC(=O)COCCOCCNC(=O)[C@H](N)CSSC[C@H](C(N)=O)NC(=O)CNC(=O)[C@H](CCCNC(=N)N)NC1=O`, the Stabilty entry in data set [1] and in data set [2] was “Stable” each time. Further, the outcome in data set [3] and in data set [4] was Active.

In the case of `CC(C)C[C@@H]1NC(=O)CNC(=O)[C@H](Cc2ccccc2)NC(=O)[C@H](C(C)C)NC(=O)[C@H](C(C)C)NC(=O)[C@H](CO)NC(=O)COCCOCCNC(=O)[C@@H](N)CSSC[C@@H](C(N)=O)NC(=O)CNC(=O)[C@H](CCCNC(=N)N)NC1=O`, the Stabilty entry in data set [1] and in data set [2] was “Stable” in each case. Besides, the outcome in data set [3], in data set [4] and in data set [5] was Active.

In the case of `CC(C)C[C@H](NC(=O)CNC(=O)[C@H](Cc1ccccc1)NC(=O)[C@@H](NC(=O)[C@@H](NC(=O)[C@H](CO)NC(=O)COCCOCCN)C(C)C)C(C)C)C(=O)N[C@@H](CCCNC(=N)N)C(N)=O` (H-[AEEA]SVVFGLR-NH2), the Stabilty entry in data set [1] is “Stable”.

On to `CC(C)C[C@@H]1NC(=O)CNC(=O)[C@H](Cc2ccccc2)NC(=O)[C@H](C(C)C)NC(=O)[C@H](C(C)C)NC(=O)[C@H](CO)NC(=O)COCCOCCNC(=O)CC[C@@H](C(N)=O)NC(=O)[C@H](CCCNC(=N)N)NC1=O` ([AEEA]SVVFGLRE-NH2; lactam N-9), for which the Stabilty result in data set [1] is listed as “Unstable”. Besides, the remaining at 6 h in data set [2] (read-out: Stabilty) came to 80%. Also, the result in data set [3] and in data set [4] was Active.

Regarding H-SVVFGLR-NH2, the remaining at 6 h in data set [1] (HUVEC cell lysates, read-out: Stabilty) stood at 50%. Moreover, the Stabilty result in data set [2] is “Unstable”. Further, the outcome in data set [3] and in data set [4] was Active.
